Data on 14 molecules can be found in patent publication US6906097B2, “8-azaprostaglandin analogs as agents for lowering intraocular pressure” (Allergan, Inc., priority 2002, dated 2005).

Experiment [1] has as its target T1, hEP4 (Homo sapiens, UniProt P35408).
T1 construct: expressed in transfected cells
As to the kind of experiment: Functional data, human recombinant EP4 receptor stable transfectants. It is filed as cell-based. Here is the method: (§1) Human Recombinant EP1, EP2, EP3, EP4, FP, TP, IP and DP Receptors: Stable Transfectants
(§2) Plasmids encoding the human EP1, EP2, EP3, EP4, FP, TP, IP and DP receptors were prepared by cloning the respective coding sequences into the eukaryotic expression vector pCEP4 (Invitrogen). The pCEP4 vector contains an Epstein Barr virus (EBV) origin of replication, which permits episomal replication in primate cell lines expressing EBV nuclear antigen (EBNA-1). It also contains a hygromycin resistance gene that is used for eukaryotic selection. […] HEK-293 cells were grown in DMEM with 10% fetal bovine serum (FBS), 250 μg ml^−1 G418 (Life Technologies) and 200 μg ml^−1 gentamicin or penicillin/streptomycin.
(§3) For transfection, the cells were grown to 50-60% confluency on 10 cm plates. The plasmid pCEP4 incorporating cDNA inserts for the respective human prostanoid receptor (20 μg) was added to 500 μl of 250 mM CaCl2. […] After 30 min, 9 ml DMEM were added to the mixture. The DNA/DMEM/calcium phosphate mixture was then added to the cells, which had been previously rinsed with 10 ml PBS. The cells were then incubated for 5 hr at 37° C. in humidified 95% air/5% CO2. The calcium phosphate solution was then removed and the cells were treated with 10% glycerol in DMEM for 2 min. The glycerol solution was then replaced by DMEM with 10% FBS. The cells were incubated overnight and the medium was replaced by DMEM/10% FBS containing 250 μg ml^−1 G418 and penicillin/streptomycin. The following day hygromycin B was added to a final concentration of 200 μg ml^−1.
(§4) Ten days after transfection, hygromycin B resistant clones were individually selected and transferred to a separate well on a 24 well plate. At confluence each clone was transferred to one well of a 6 well plate, and then expanded in a 10 cm dish. Cells were maintained under continuous hygromycin selection until use.

The target in experiment [2] is T1, hEP4. Kind of experiment: Radioligand binding, hEP4. The note with it: [3H]PGE2 competition. Here is the method: as §1, §2, §3, §4
Radioligand binding studies on plasma membrane fractions prepared for cells stably transfected with the cat or human receptor were performed as follows. Cells washed with TME buffer were scraped from the bottom of the flasks and homogenized for 30 sec using a Brinkman PT 10/35 polytron. TME buffer was added as necessary to achieve a 40 ml volume in the centrifuge tubes. TME is comprised of 50 mM TRIS base, 10 mM MgCl2, 1 mM EDTA; pH 7.4 is achieved by adding 1 N HCl. The cell homogenate was centrifuged at 19,000 rpm for 20-25 min at 4° C. using a Beckman Ti-60 or Ti-70 rotor. The pellet was then resuspended in TME buffer to provide a final protein concentration of 1 mg/ml, as determined by Bio-Rad assay. Radioligand binding assays were performed in a 100 μl or 200 μl volume.
The binding of [^3H](N) PGE2 (specific activity 165 Ci/mmol) was determined in duplicate and in at least 3 separate experiments. Incubations were for 60 min at 25° C. and were terminated by the addition of 4 ml of ice-cold 50 mM TRIS-HCl followed by rapid filtration through Whatman GF/B filters and three additional 4 ml washes in a cell harvester (Brandel). Competition studies were performed using a final concentration of 2.5 or 5 nM [^3H](N) PGE2 and non-specific binding was determined with 10^−5 M unlabelled PGE2.

Experiment [3] addresses T2, hEP1 (Homo sapiens, UniProt P34995).
T2 construct: expressed in transfected cells
T2 sequence (P34995 1-402): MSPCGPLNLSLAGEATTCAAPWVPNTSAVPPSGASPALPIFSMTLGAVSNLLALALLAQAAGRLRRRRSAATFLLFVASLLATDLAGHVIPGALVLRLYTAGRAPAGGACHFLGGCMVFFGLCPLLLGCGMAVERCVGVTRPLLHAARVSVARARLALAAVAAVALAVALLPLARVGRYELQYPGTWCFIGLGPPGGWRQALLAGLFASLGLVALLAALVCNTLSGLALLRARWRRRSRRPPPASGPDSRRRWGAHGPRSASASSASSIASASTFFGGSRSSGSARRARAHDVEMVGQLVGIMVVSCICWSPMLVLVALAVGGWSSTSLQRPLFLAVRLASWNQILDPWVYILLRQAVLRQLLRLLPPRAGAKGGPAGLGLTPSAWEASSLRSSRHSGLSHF
As to the kind of experiment: Functional data, human recombinant EP1 receptor stable transfectants. It is filed as cell-based. Here is the method: as §1
(§5) Plasmids encoding the human EP1, EP2, EP3, EP4, FP, TP, IP and DP receptors were prepared by cloning the respective coding sequences into the eukaryotic expression vector pCEP4 (Invitrogen). The pCEP4 vector contains an Epstein Barr virus (EBV) origin of replication, which permits episomal replication in primate cell lines expressing EBV nuclear antigen (EBNA-1). It also contains a hygromycin resistance gene that is used for eukaryotic selection. The cells employed for stable transfection were human embryonic kidney cells (HEK-293) that were transfected with and express the EBNA-1 protein. These HEK-293-EBNA cells (Invitrogen) were grown in medium containing Geneticin (G418) to maintain expression of the EBNA-1 protein. HEK-293 cells were grown in DMEM with 10% fetal bovine serum (FBS), 250 μg ml^−1 G418 (Life Technologies) and 200 μg ml^−1 gentamicin or penicillin/streptomycin.
(§6) For transfection, the cells were grown to 50-60% confluency on 10 cm plates. The plasmid pCEP4 incorporating cDNA inserts for the respective human prostanoid receptor (20 μg) was added to 500 μl of 250 mM CaCl2. HEPES buffered saline×2 (2×HBS, 280 mM NaCl, 20 mM HEPES acid, 1.5 mM Na2 HPO4, pH 7.05-7.12) was then added dropwise to a total of 500 μl, with continuous vortexing at room temperature. After 30 min, 9 ml DMEM were added to the mixture. The DNA/DMEM/calcium phosphate mixture was then added to the cells, which had been previously rinsed with 10 ml PBS. The cells were then incubated for 5 hr at 37° C. in humidified 95% air/5% CO2. The calcium phosphate solution was then removed and the cells were treated with 10% glycerol in DMEM for 2 min. The glycerol solution was then replaced by DMEM with 10% FBS. The cells were incubated overnight and the medium was replaced by DMEM/10% FBS containing 250 μg ml^−1 G418 and penicillin/streptomycin. The following day hygromycin B was added to a final concentration of 200 μg ml^−1.
as §4

Experiment [4] deals with T3, hEP3A (Homo sapiens, UniProt P43115).
T3 construct: expressed in transfected cells
T3 sequence (P43115 1-390): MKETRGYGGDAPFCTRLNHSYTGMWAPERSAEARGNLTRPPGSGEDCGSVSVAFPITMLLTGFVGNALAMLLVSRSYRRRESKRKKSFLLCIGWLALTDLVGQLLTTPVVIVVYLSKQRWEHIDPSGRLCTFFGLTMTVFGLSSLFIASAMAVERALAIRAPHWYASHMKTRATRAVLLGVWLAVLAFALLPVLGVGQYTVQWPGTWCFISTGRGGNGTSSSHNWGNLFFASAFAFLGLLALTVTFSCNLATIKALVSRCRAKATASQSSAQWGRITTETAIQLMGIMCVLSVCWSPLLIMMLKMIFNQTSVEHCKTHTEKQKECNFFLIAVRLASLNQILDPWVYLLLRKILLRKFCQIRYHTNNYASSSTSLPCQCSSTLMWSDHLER
Kind of experiment: Functional data, human recombinant EP3A receptor stable transfectants. Type of experiment: cell-based. The protocol: as §1, §2, §3, §4

The target in experiment [5] is T4, hTP (Homo sapiens, UniProt P21731).
T4 construct: expressed in transfected cells
T4 sequence (P21731 1-343): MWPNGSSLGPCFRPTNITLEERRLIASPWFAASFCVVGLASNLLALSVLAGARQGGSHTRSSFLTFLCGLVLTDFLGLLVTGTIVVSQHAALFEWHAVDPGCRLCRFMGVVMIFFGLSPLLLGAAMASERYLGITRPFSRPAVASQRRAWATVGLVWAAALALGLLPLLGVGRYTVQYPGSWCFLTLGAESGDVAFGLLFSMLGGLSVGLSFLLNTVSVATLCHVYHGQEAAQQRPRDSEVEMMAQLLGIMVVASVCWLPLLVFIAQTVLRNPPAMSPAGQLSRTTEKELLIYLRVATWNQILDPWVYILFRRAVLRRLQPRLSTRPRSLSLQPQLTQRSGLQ
As to the kind of experiment: Functional data, human recombinant TP receptor stable transfectants. Type of experiment: cell-based. Here is the method: as §1, §5, §6, §4

T1 sequence (P35408 whole entry): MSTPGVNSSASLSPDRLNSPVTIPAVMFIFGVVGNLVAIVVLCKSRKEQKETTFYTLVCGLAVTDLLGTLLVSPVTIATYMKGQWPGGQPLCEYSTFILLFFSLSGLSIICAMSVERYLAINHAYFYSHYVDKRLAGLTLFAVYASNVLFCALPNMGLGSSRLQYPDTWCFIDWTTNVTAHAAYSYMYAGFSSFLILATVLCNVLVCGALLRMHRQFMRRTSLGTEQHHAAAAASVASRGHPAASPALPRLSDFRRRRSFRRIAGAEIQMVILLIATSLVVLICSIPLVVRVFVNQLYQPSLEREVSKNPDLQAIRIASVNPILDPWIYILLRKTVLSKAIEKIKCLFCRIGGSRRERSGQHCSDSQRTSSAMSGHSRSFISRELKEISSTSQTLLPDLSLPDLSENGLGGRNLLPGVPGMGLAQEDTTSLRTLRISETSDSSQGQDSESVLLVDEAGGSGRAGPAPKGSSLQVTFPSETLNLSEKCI

On to `CCOC(=O)CCCCCCN1C(=O)CC[C@@H]1CCC(O)Cc1cccc(Cl)c1` (stereo partly drawn) [Example 2, 7-[2S-[3R-Hydroxy-4-(chlorophenyl)-butyl]-5-oxo-pyrrolidin-1-yl]-heptanoic acid, ethyl ester], for which the EC50 (usually the concentration that produces a half-maximal response) in experiment [1] stood at 65 nM. The IC50 (in general, the concentration that inhibits the measured activity by half) in experiment [2] was determined as 1000 nM.

As to `CCOC(=O)CCCCCCN1C(=O)CC[C@@H]1/C=C/C(O)Cc1cccc(Cl)c1` (stereo partly drawn) [Example 2a, 7-[2S-[3R-Hydroxy-4-(chlorophenyl)-but-1-enyl]-5-oxo-pyrrolidin-1-yl]-heptanoic acid, ethyl ester], the EC50 in experiment [1] came out at 21 nM. For the same molecule, the IC50 in experiment [2] was determined as 300 nM.

On to `O=C(O)CCCCCCN1C(=O)CC[C@@H]1/C=C/C(=O)Cc1cccc(Cl)c1` [Example 3a, 7-[2S-[4-(3-Chloro-phenyl)-3-oxo-but-1-enyl]-5-oxo-pyrrolidin-1-yl]-heptanoic acid], for which, in experiment [3], the “hEP1 functional EC50” value is given as “hit”. The EC50 in experiment [4] is 324 nM; in experiment [5] it was over 10000 nM; in experiment [1], 54 nM. In experiment [2], this molecule registered an IC50 of 300 nM.

For the molecule `CCOC(=O)CCCCCCN1C(=O)CC[C@@H]1/C=C/C(=O)Cc1cccc(Cl)c1` [Example 4a, 7-[2S-[4-(3-Chloro-phenyl)-3-oxo-but-1-enyl]-5-oxo-pyrrolidin-1-yl]-heptanoic acid, ethyl ester], the EC50 in experiment [1] was over 10000 nM. This molecule also returned an IC50 in experiment [2] of over 10000 nM.

In the case of `O=C(O)CCCCCCN1C(=O)CC[C@@H]1CCC(O)Cc1cccc(C(F)(F)F)c1` (stereo partly drawn) [Example 5, 7-[2S-[3R-Hydroxy-4-(3-trifluoromethyl-phenyl)-butyl]-5-oxo-pyrrolidin-1-yl]-heptanoic acid], in experiment [4], the “hEP3A functional EC50” value is given as “hit”. Further, the EC50 in experiment [1] was 0.4 nM. This molecule displayed an IC50 in experiment [2] of 17 nM.

Regarding `O=C(O)CCCCCCN1C(=O)CC[C@@H]1/C=C/C(O)Cc1cccc(C(F)(F)F)c1` (stereo partly drawn) [Example 5a, 7-[2S-[3R-Hydroxy-4-(3-trifluoromethyl-phenyl)-but-1-enyl]-5-oxo-pyrrolidin-1-yl]-heptanoic acid], the “hEP3A functional EC50” value in experiment [4] is recorded as “hit”. Also, in experiment [1], the EC50 came to 0.4 nM. This molecule gave an IC50 in experiment [2] of 5 nM.

With `CCOC(=O)CCCCCCN1C(=O)CC[C@@H]1CCC(O)Cc1cccc(C(F)(F)F)c1` (stereo partly drawn) [Example 6, 7-[2S-[3R-Hydroxy-4-(3-trifluoromethyl-phenyl)-butyl]-5-oxo-pyrrolidin-1-yl]-heptanoic acid, ethyl ester], the EC50 in experiment [1] was found to be 111 nM. This molecule also returned an IC50 in experiment [2] of 1200 nM.

In the case of `CCOC(=O)CCCCCCN1C(=O)CC[C@@H]1CCC(=O)Cc1cccc(C(F)(F)F)c1` [Example 8, 7-[2S-[3-Oxo-4-(trifluoromethylphenyl)-butyl]-5-oxo-pyrrolidin-1-yl]-heptanoic acid, ethyl ester], the EC50 in experiment [1] stood at 7160 nM. For the same molecule, in experiment [2], the IC50 is over 10000 nM.

In the case of `CCOC(=O)CCCCCCN1C(=O)CC[C@@H]1/C=C/C(=O)Cc1cccc(C(F)(F)F)c1` [Example 8a, 7-[2S-[3-Oxo-4-(trifluoromethylphenyl)-but-1-enyl]-5-oxo-pyrrolidin-1-yl]-heptanoic acid, ethyl ester], the EC50 in experiment [4] and in experiment [1] was over 10000 nM in each case. Besides, the IC50 in experiment [2] is over 10000 nM.

For `O=C(O)CCCCCCN1C(=O)CC[C@@H]1CCC(O)Cc1ccccc1` (stereo partly drawn) [Example 9, 7-[2S-[3R-Hydroxy-(4-phenyl)-butyl]-5-oxo-pyrrolidin-1-yl]-heptanoic acid], the EC50 was over 10000 nM in experiment [4] and 2.4 nM in experiment [1]. In experiment [2], this molecule had an IC50 of 18 nM.

As for `CCOC(=O)CCCCCCN1C(=O)CC[C@@H]1CCC(O)Cc1ccccc1` (stereo partly drawn) [Example 10, 7-[2S-[3R-Hydroxy-(4-phenyl)-butyl]-5-oxo-pyrrolidin-1-yl]-heptanoic acid, ethyl ester], in experiment [1], the EC50 stood at 1020 nM.

For the molecule `CCOC(=O)CCCCCCN1C(=O)CC[C@@H]1/C=C/C(O)Cc1ccccc1` (stereo partly drawn) [Example 10a, 7-[2S-[3R-Hydroxy-(4-phenyl)-but-1-enyl]-5-oxo-pyrrolidin-1-yl]-heptanoic acid, ethyl ester], in experiment [1], the EC50 turned out to be 368 nM. In experiment [2], this molecule had an IC50 of 600 nM.

Turning to `CCOC(=O)CCCCCCN1C(=O)CC[C@@H]1CCC(=O)Cc1ccccc1` [Example 12, 7-[2S-[3-Oxo-4-(phenyl)-butyl]-5-oxo-pyrrolidin-1-yl]-heptanoic acid, ethyl ester], the EC50 in experiment [1] was over 10000 nM. Further, the IC50 in experiment [2] was determined as 8900 nM.

`CCOC(=O)CCCCCCN1C(=O)CC[C@@H]1/C=C/C(=O)Cc1ccccc1` [Example 12a, 7-[2S-[3-Oxo-4-(phenyl)-but-1-enyl]-5-oxo-pyrrolidin-1-yl]-heptanoic acid, ethyl ester]: the EC50 in experiment [1] was over 10000 nM. In addition, the IC50 in experiment [2] was over 10000 nM.
